Results published in US8440641B2, “Phthalocyanine salt formulations” (Case Western Reserve University, priority 2009, dated 2013).
Values joined by “and” are separate entries in the source; they are usually repeats but may differ in a detail not shown here. Identical values can stand only once.

Experiments:
Format in all cases: physicochemical
[1] = Qualitative solubility in representative organic solvents; conditions: for solubility in CH2Cl2: CH2Cl2, qualitative; for solubility in dimethylformamide / solubility in ethanol / solubility in hexanes / solubility in toluene: qualitative
[2] = Salt concentration in polar and nonpolar solvents (Table 2); conditions: for solubility in hexanes and mineral oil: mineral oil (Nujol)
[3] = Chemical stability (air, chromatography)
[4] = Photofading of phthalocyanines on irradiation with tungsten lamp light; conditions: toluene ~0.01 mM, 300 W tungsten lamp, 30 cm, room temperature
Method: Linolenate Ester of SiPc(OH)2, SiPc(OC(O)(CH2)6(CH2CH═CH)3 CH2CH3]2. A solution of the linolenate ester of SiPc(OH)2 in toluene (˜0.01 mM) in a capped quartz cuvette was irradiated at room temperature with light from a tungsten lamp (300 W) in a projector (Kodak […] III E, Kodak, Japan) with a lamp-to-cuvette separation of 30 cm. The UV-vis absorption of the solution at 684 nm was taken periodically and the percent ester remaining was calculated.
The compounds below Table 7 show phthalocyanines with (a) polyunsaturated ester ligands and (b) with polyunsaturated anions

[5] = Quantitative solubility (concentration) in H2O and aqueous dispersants
From the text: Disperstants are agents added to an aqueous solution to prevent clumping, and include a number of surfactant and surfactant-like molecules. […]

Compound | solubility in CH2Cl2 [1] | solubility in dimethylformamide [1] | solubility in ethanol [1] | solubility in hexanes [1] | solubility in toluene [1] | other results
[HOSiPcOSi(CH3)2(CH2)3NH(CH2)2]^+[C27H29N2O7S2]^− [Compound 14] | soluble | soluble | soluble | insoluble | moderately soluble | –
CN(C)CCC[Si](C)(C)O[Si]1(O)n2c3c4ccccc4c2N=C2N=C(N=c4c5ccccc5c(n41)=NC1=NC(=N3)c3ccccc31)c1ccccc12.COC(=O)c1ccccc1C(=O)O (stereo not drawn) [Compound 10, [HOSiPcOSi(CH3)2(CH2)3NH(CH2)2]^+[2-(CH3OC(O))C6H4C(O)O]^−] | soluble | soluble | soluble | insoluble | moderately soluble | –
[HOSiPcOSi(CH3)2(CH2)3NH(CH3)2]^+[H(OCH2CH2)˜76O(O)C(CH2)2C(O)O]^− [Compound 22] | soluble | soluble | soluble | insoluble | moderately soluble | –
H(OCH2CH2)˜76OOC(CH2)2COOH [Compound 21] | soluble | soluble | soluble | insoluble | moderately soluble | –
CN(C)CCC[Si](C)(C)O[Si]1(O)n2c3c4ccccc4c2N=C2N=C(N=c4c5ccccc5c(n41)=NC1=NC(=N3)c3ccccc31)c1ccccc12.O=C(O)CCC(=O)OCCOCCOCCOCCOCCOCCOCCOCCOCCO (stereo not drawn) [Compound 20, [HOSiPcOSi(CH3)2(CH2)3NH(CH3)2]^+[H(OCH2CH2)9OC(O)(CH2)2C(O)O]^−] | soluble | soluble | soluble | insoluble | moderately soluble | –
CN(C)CCC[Si](C)(C)O[Si]1(O)n2c3c4ccccc4c2N=C2N=C(N=c4c5ccccc5c(n41)=NC1=NC(=N3)c3ccccc31)c1ccccc12.CS(=O)(=O)O (stereo not drawn) [Compound 26, [HOSiPcOSi(CH3)2(CH2)3NH(CH3)2]^+[CH3SO3]^−] | – | – | – | – | – | salt concentration, […] aqueous Tween 80 [2]: 0.262 mM; solubility in aqueous solution ([2]; in words): show solubility; salt concentration, hexanes [2]: 0.002 mM; solubility in hexanes and mineral oil ([2]; in words): little; salt concentration, mineral oil [2]: 0.002 mM
H(OCH2CH2)˜9OC(O)(CH2)2C(O)OH [Compound 19] | soluble | soluble | soluble | insoluble | moderately soluble | –
CN(C)CCC[Si](C)(C)O[Si-2]123(F)n4c5c6ccccc6c4N=C4c6ccccc6C(=[N+]41)N=c1c4ccccc4c(n12)=NC1=[N+]3C(=N5)c2ccccc21 [Compound 1, FSiPcOSi(CH3)2(CH2)3N(CH3)2] | soluble | soluble | soluble | insoluble | moderately soluble | stability in air [3]: stable
{SiPc[OSi(CH3)2(CH2)3NH(CH3)2]2}^2+[CH3CH2(CH═CHCH2)3(CH2)6COO^−]2 [linolenic salt] | – | – | – | – | – | % left ([4]; 12 hrs irradiation): 79%; % left ([4]; 20 hrs irradiation): 73%
CO[Si]1(O[Si](C)(C)CCCN(C)C)n2c3c4ccccc4c2N=C2N=C(N=c4c5ccccc5c(n41)=NC1=NC(=N3)c3ccccc31)c1ccccc12 (stereo not drawn) [Compound 4, CH3OSiPcOSi(CH3)2(CH2)3N(CH3)2] | soluble | soluble | soluble | insoluble | moderately soluble | stability in air [3]: stable
CH3(OCH2CH2)˜45OC(O)(CH2)2C(O)OH [Compound 23] | soluble | soluble | soluble | insoluble | moderately soluble | –
CCC=CCC=CCC=CCC=CCC=CCC=CCCC(=O)O.CCC=CCC=CCC=CCC=CCC=CCC=CCCC(=O)O.CN(C)CCC[Si](C)(C)O[Si]1(O[Si](C)(C)CCCN(C)C)n2c3c4ccccc4c2N=C2N=C(N=c4c5ccccc5c(n41)=NC1=NC(=N3)c3ccccc31)c1ccccc12 [DHA salt, {SiPc[OSi(CH3)2(CH2)3NH(CH3)2]2}^2+[CH3CH2(CH═CHCH2)6CH2COO^−]2] | – | – | – | – | – | % left ([4]; 4 hrs irradiation): 72%; % left ([4]; 8 hrs irradiation): 62%
CN(C)CCC[Si](C)(C)O[Si]1(O)n2c3c4ccccc4c2N=C2N=C(N=c4c5ccccc5c(n41)=NC1=NC(=N3)c3ccccc31)c1ccccc12 (stereo not drawn) [Pc 4, HOSiPcOSi(CH3)2(CH2)3N(CH3)2, reference compound] | – | – | – | – | – | Pc 4 conc ([5]; H2O, no dispersant): 0.0 μg/mL and 0.0 μM; Pc 4 conc ([5]; aqueous 1,6-hexanediol 7.2 mg/mL (61 mM)): 7.2 μg/mL and 10 μM; Pc 4 conc ([5]; aqueous Dow Corning 193 7.2 mg/mL): 0.29 μg/mL and 0.40 μM; Pc 4 conc ([5]; aqueous potassium poly(ethylene glycol)-4-nonylphenyl-3-sulfopropyl ether 7.2 mg/mL (5.7 mM)): 4.3 μg/mL and 6.0 μM; Pc 4 conc ([5]; aqueous povidone 7.2 mg/mL (0.18 mM)): 0.09 μg/mL and 0.12 μM
[HOSiPcOSi(CH3)2(CH2)3NH(CH3)2]^+[CH3(OCH2CH2)˜45OC(O)(CH2)2C(O)O]^− [Compound 24] | soluble | soluble | soluble | insoluble | moderately soluble | –
[HOSiPcOSi(CH3)2(CH2)3NH(CH2)2]^+[C33H53O5]^− [Compound 11] | soluble | soluble | soluble | slightly soluble | moderately soluble | salt concentration, […] aqueous Tween 80 [2]: 0.004 mM; solubility in aqueous solution ([2]; in words): only slight solubility; salt concentration, hexanes [2]: 0.065 mM; solubility in hexanes and mineral oil ([2]; in words): significant solubility; salt concentration, mineral oil [2]: 0.029 mM; solubility in petrolatum ([2]; petrolatum (Vaseline), in words): significant solubility
CN(C)CCC[Si](C)(C)O[Si]1(O)n2c3c4ccccc4c2N=C2N=C(N=c4c5ccccc5c(n41)=NC1=NC(=N3)c3ccccc31)c1ccccc12.CP(C)(=O)O (stereo not drawn) [Compound 13, [HOSiPcOSi(CH3)2(CH2)3NH(CH2)2]^+[(CH3)2P(O)O]^−] | soluble | soluble | soluble | insoluble | moderately soluble | –
[HOSiPcOSi(CH3)2(CH2)3NH(CH3)2]^+[(HOC(O)(CH2)10Si(CH3)2)(Si(CH3)2O)˜120(Si(CH3)2(CH2)10C(O)O]^− [Compound 16] | soluble | soluble | soluble | insoluble | moderately soluble | stability on chromatography ([3]; Biobeads S-X3, CH2Cl2): decomposed to Pc 4 and the carboxysiloxane
SiPc[OC(O)(CH2)17]2 [stearic ester] | – | – | – | – | – | % left ([4]; 20 hrs irradiation): 100%
CCC(=O)O[Si-2]123(O[Si](C)(C)CCCN(C)C)n4c5c6ccccc6c4N=C4c6ccccc6C(=[N+]41)N=c1c4ccccc4c(n12)=NC1=[N+]3C(=N5)c2ccccc21 [Compound 3, CH3CH2C(O)OSiPcOSi(CH3)2(CH2)3N(CH3)2] | soluble | soluble | soluble | insoluble | moderately soluble | stability in air [3]: stable
4-C9H19C6H4-1-(OCH2CH2)˜20O(CH2)3SO3H [Compound 17] | soluble | soluble | soluble | insoluble | moderately soluble | –
SiPc(OC(O)(CH2)6(CH2CH═CH)2(CH2)4CH3]2 [linoleic ester] | – | – | – | – | – | % left ([4]; 4 hrs irradiation): 95%; % left ([4]; 12 hrs irradiation): 95%; % left ([4]; 20 hrs irradiation): 94%
[HOSiPcOSi(CH3)2(CH2)3NH(CH3)2]^+[4-C9H19C6H4-1-(OCH2CH2)˜20O(CH2)3SO3]^− [Compound 18] | soluble | soluble | soluble | insoluble | moderately soluble | salt conc in dilute aqueous Tween 80 ([5]; Tween 80 7.2 mg/mL ([…])): 874 µM; salt conc ([5]; aqueous Dow Corning 193 7.2 mg/mL, listed as Pc 245): 50 μg/mL and 70 μM; salt conc ([5]; aqueous PEG methyl ether 350 7.2 mg/mL (21 mM), listed as Pc 245): 9.3 μg/mL and 13 μM; salt conc ([5]; aqueous PEG methyl ether 750 7.2 mg/mL (9.6 mM), listed as Pc 245): 0.022 μg/mL and 0.031 μM; salt conc ([5]; aqueous PEG methyl ether 2000 7.2 mg/mL (3.6 mM), listed as Pc 245): 1.3 μg/mL and 1.8 μM; salt conc ([5]; aqueous PEG methyl ether 5000 7.2 mg/mL (1.4 mM), listed as Pc 245): 3.4 μg/mL and 4.8 μM; salt conc ([5]; aqueous potassium poly(ethylene glycol)-4-nonylphenyl-3-sulfopropyl ether 7.2 mg/mL (5.0 mM)): 1418 µM; salt conc ([5]; aqueous potassium poly(ethylene glycol)-4-nonylphenyl-3-sulfopropyl ether 7.2 mg/mL (5.0 mM), listed as Pc 245): ~1018 μg/mL and ~1418 μM; salt conc ([5]; aqueous povidone 7.2 mg/mL (0.18 mM), listed as Pc 245): 14 μg/mL and 19 μM
